For experiment [1], the system named is mosquitoes, beetles, and termites. Conditions: known from prior knowledge; cited from earlier work.
The subject of experiment [2] is female house mice, Mus musculus (strain: CD-1). Put plainly: Two-choice T-tube olfactometer bioassay: deterrence from approaching and feeding on a food bait. The format is in vivo. To be noted: Experiments 1 to 12; single test stimulus 100 μl or 100 mg on cotton ball next to food bait vs unscented chamber. From the text:
Female house mice, Mus musculus (strain: CD-1®), were obtained from Charles River Laboratories Ltd (Saint-Constant, QC J5A 2E7, Canada) and cared for by Animal Care Services of Simon Fraser University (“SFU”). On arrival, mice were assigned to four groups of five female mice each. Each group was accommodated in cages (50 cm×40 cm×20 cm) lined with commercial corn cob bedding (Anderson's Bed o'cobs, The Andersons Inc. Maumee, Ohio 43537, USA), provided with Nalgene toys, running wheels (Jamieson's Pet Food Distributors, Ltd, Delta, BC V4G 1C9, Canada), and provisioned with commercial rodent food (LabDiet® Certified Rodent Diet, LabDiet®, St Louis, Mo. 63144, USA) as well as water ad libitum. Cages were maintained at a temperature of 21° C. and a relative humidity of 50%. A reverse photoperiod (12 hours light; 12 hours dark) was maintained to facilitate behavioral bioassays during normal working hours. […]
FIG. 3 depicts data obtained by additional testing of those plant essential oils found most promising in pre-screening experiments (Experiments 2, 5, 8, 9, and 11), running a total of 8 replicates for each of experiments 2, 5, 8, 9 and 11. First-choice, first-fed, and time-spent data were analyzed using g-tests and Student's t-tests, respectively, for these experiments. […]

Structures are written as SMILES.

Regarding `C=CCc1ccc(O)c(OC)c1` [Eugenol], the repellency to insects result in experiment [1] is on record as “repellent”.
As to `CC1CCC(C(C)C)C(O)C1` (centres unmarked) [menthol, Menthol], in experiment [2], the “first fed (scented chamber fed in first by mice)” value is “never fed in first”.

Source of the values: patent US20220087247A1, “MOUSE REPELLENTS, DEVICES, AND METHODS OF USING SUCH” (priority 2020, published 2022).
